pEC50, pIC50: −log10 of the molar value.
Assays:
PARP1 [1] = target: T1, PARP1 (Homo sapiens, UniProt P09874); assay: PARP1 fluorescence polarization binding assay; details: binding IC50, GST-tagged PARP1 20 nM, PARPi-FL 3 nM
Outline: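 Competitive FP binding: 20 nM GST-tagged PARP1 preincubated with compound 30 min at RT, then 3 nM PARPi-FL probe for 4 h at RT; buffer 50 mM Tris pH 8.0, 10 mM MgCl2, 150 mM NaCl. 10-point 3-fold dilutions; % inhibition from mP versus controls, IC50 by four-parameter fit, reported in ranges.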

recombinant human PARP2 = recombinant human PARP2 (Homo sapiens, UniProt Q9UGN5); assay: PARP2 fluorescence polarization binding assay; details: for inhibition at 10 µM: read-out: PARP2 % inh at 10 μM
Outline: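 GST-tagged PARP2, added at 40 nM in 50 mM Tris pH 8.0, 0.001% Triton X-100, 10 mM MgCl2, 150 mM NaCl, was preincubated 30 min at RT with compound (10-point 3-fold series or single concentration). PARPi-FL probe was then added at 6 nM for 4 h. IC50 was fitted from fluorescence polarization (ex 480/em 535 nm) with floating top and bottom.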

[2] = tested on: DLD-1 BRCA2(−/−) colorectal adenocarcinoma cells; assay: Cell viability assay (Cell Titer-Glo), DLD-1 BRCA2(−/−); type: cell-based; details: Homo sapiens, DLD-1, 168 h; 7 days incubation, 200 cells/well
Outline: (§1)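 Isogenic DLD-1 wild-type (50 cells/well) and BRCA2(−/−) (200 cells/well) lines treated after overnight attachment, 7 days at 37 °C, 5% CO2. Ten-point dilutions (e.g. 1.5 nM–30 μM) or single dose; CellTiter-Glo luminescence; IC50 from four-parameter fit, plus % inhibition at 10 μM.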

[3] = tested on: DLD-1 wild-type colorectal adenocarcinoma cells; assay: Cell viability assay (Cell Titer-Glo), DLD-1 wild-type; type: cell-based; details: Homo sapiens, DLD-1, 168 h, 7 days incubation; for inhibition at 10 µM: read-out: DLD-1 wild-type % inh at 10 μM
Outline: as §1

PARP1 [4] = target: T1, PARP1; assay: PARP1 biochemical trapping assay (BPS PARPtrap)
Description: Compounds of the present disclosure were tested in a PARP1 biochemical trapping assay at BPS Bioscience (San Diego, CA). PARP1 is known to bind damaged DNA through its DNA-binding domains. Binding to DNA activates PARP1, and in the presence of NAD+, PARP1 ribosylates itself (auto-ribosylation), leading to PARP1 dissociation from the DNA due to the accumulated negative charge of the ribosyl polymer. In the presence of some inhibitors, however, PARP remains bound to the DNA, a phenomenon termed trapping.
The BPS PARPtrap assay kit for PARP1 (BPS Catalog #80584) was used. A series of dilutions of the compounds were prepared with 10% DMSO in water. The final concentration of DMSO was 1% in all reactions. The enzymatic reactions were conducted in duplicates at room temperature in a 96-well plate. The 45 μl reaction mixtures in PARPtrap buffer 1 containing PARP1 fluorescent labelled oligonucleotide duplex, PARP enzyme and the test compound were incubated at room temperature for 10 min. After pre-incubation, the enzymatic reaction was initiated by adding 5 μl of 10×NAD+ solution. The reaction was incubated for 45-60 min at room temperature.
Fluorescence polarization was measured at an excitation of 470 nm and an emission of 518 nm using a Tecan Infinite M1000 microplate reader. The blank value was subtracted from all other values. Fluorescence polarization was analyzed by Tecan Magellan 6 software and wells containing DNA were used as references. The fluorescence polarization data were then evaluated using GraphPad Prism software. The fluorescence polarization in absence of the compound in each data set was defined as 0% activity (FPo), while the fluorescence polarization in the absence of both NAD+ and the compound was defined as 100% activity (FPt). The percent activity in the presence of the compound was calculated according to the equation % activity=[FP−FPo]/[(FPt−FPo)]×100, where FP=the fluorescence polarization in the presence of the compound.
The values of % activity versus a series of compound concentrations were then plotted using non-linear regression analysis of a sigmoidal dose-response curve generated with the equation Y=B+(T−B)/1+10^((LogEC50−X)×Hill Slope), where Y=percent activity, B=minimum percent activity, T=maximum percent activity, X=logarithm of compound and Hill Slope=slope factor or Hill coefficient. The EC50 value was determined by the concentration causing a half-maximal percent activity. EC50 values are shown in Table C and are presented in ranges, in which “+++”<300 nM, 300 nM≤“++”<3000 nM, and “+”≥3000 nM.

recombinant human PARP2, sequence (Q9UGN5 whole entry): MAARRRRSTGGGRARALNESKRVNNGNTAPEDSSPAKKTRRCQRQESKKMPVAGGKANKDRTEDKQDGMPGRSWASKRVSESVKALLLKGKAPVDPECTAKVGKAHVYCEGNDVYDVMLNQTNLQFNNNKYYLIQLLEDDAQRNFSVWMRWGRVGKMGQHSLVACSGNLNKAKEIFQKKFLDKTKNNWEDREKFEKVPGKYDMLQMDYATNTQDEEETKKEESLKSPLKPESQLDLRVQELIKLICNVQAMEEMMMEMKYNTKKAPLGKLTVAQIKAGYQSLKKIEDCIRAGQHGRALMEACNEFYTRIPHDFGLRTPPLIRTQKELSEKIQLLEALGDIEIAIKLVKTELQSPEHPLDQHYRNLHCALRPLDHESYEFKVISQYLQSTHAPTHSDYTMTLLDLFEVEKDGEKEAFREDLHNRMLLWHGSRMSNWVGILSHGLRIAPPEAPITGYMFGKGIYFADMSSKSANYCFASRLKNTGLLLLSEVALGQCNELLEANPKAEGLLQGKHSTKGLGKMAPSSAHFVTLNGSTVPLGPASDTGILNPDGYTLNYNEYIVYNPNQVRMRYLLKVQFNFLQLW
T1 sequence (P09874 whole entry): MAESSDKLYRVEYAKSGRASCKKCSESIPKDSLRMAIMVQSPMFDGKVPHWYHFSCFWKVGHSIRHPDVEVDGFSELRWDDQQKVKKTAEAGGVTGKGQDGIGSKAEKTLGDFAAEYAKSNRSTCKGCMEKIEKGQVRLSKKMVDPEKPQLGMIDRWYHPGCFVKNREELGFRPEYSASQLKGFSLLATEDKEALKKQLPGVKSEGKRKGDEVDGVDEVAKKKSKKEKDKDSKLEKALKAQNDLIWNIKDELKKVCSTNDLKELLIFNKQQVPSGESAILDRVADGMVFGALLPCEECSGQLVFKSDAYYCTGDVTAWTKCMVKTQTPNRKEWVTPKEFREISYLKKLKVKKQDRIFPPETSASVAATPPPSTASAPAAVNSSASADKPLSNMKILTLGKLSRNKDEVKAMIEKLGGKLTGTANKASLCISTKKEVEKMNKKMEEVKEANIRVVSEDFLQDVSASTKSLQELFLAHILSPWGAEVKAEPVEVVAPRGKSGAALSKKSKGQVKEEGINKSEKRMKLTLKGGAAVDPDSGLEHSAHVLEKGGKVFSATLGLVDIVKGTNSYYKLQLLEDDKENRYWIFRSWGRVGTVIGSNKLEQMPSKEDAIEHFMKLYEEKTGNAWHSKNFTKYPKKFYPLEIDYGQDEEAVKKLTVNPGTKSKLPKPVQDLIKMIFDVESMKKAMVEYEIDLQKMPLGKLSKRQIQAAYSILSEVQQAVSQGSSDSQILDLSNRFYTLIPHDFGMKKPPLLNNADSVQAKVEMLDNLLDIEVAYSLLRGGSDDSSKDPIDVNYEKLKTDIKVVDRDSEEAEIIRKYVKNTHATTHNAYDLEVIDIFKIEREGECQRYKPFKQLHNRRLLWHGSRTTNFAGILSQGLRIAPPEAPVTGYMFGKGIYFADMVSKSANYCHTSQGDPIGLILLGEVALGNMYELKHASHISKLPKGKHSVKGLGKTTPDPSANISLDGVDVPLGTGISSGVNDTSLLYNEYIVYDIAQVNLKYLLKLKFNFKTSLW

SMILES	pIC50 (PARP1 [1])	pIC50 (recombinant human PARP2; binding IC50, GST-tagged PARP2 20 nM, PARPi-FL 3 nM)	inhibition at 10 µM (recombinant human PARP2)	pIC50 [2]	pIC50 ([3]; 50 cells/well)	pEC50 (PARP1 [4])	inhibition at 10 µM [3]
CCn1c(=O)[nH]c2cc(CN3CCN(c4ccc(C(=O)NC)nc4C(F)(F)F)CC3)sc2c1=O [Compound 307]	> 7.00	< 5.52	33 to 67%	5.52 to 6.52	< 5.52	5.52 to 6.52	< 33%
CCn1c(=O)[nH]c2cc(CN3CCN(c4ccc(C(=O)NC5COC5)nc4C)CC3)sc2c1=O [Compound 323]	> 7.00	–	33 to 67%	< 5.52	–	< 5.52	< 33%
CCn1c(=O)[nH]c2cc(CN3CCN(c4ccc(C(=O)NC(CO)CO)nc4C)CC3)sc2c1=O [Compound 527]	> 7.00	–	33 to 67%	< 5.52	–	< 5.52	< 33%

Continued, in another order:

pIC50 (PARP1 [1])	pIC50 (recombinant human PARP2; binding IC50, GST-tagged PARP2 20 nM, PARPi-FL 3 nM)	inhibition at 10 µM (recombinant human PARP2)	pIC50 [2]	pIC50 ([3]; 50 cells/well)	pEC50 (PARP1 [4])	SMILES	inhibition at 10 µM [3]
> 7.00	–	33 to 67%	> 6.52	–	> 6.52	CCn1c(=O)[nH]c2cc(CN3CCN(c4ccc(C(=O)NC)nc4F)CC3)sc2c1=O [Compound 319]	< 33%
5.52 to 7.00	–	–	–	–	< 5.52	CCn1c(=O)[nH]c2cc(CN3CCN(c4ccc(C(=O)NC)nc4C)C(=O)C3)sc2c1=O [Compound 334, 5-[4-({3-ethyl-2,4-dioxo-1H-thieno[3,2-d]pyrimidin-6-yl}methyl)-2-oxopiperazin-1-yl]-N,6-dimethylpyridine-2-carboxamide]	–

From US20240132449A1, “HETEROCYCLIC COMPOUNDS AND METHODS OF USE THEREOF” (1cBio, Inc., priority 2022, published 2024)
